Laboratory results from US11225474B2, “Crystalline salt forms of 3-(1,2,4-triazolo[4,3-a]pyridine-3-ylethynyl)-4-methyl-N-(4-((4-methylpiperazin-1-yl)methyl)-3-trifluoromethylphenyl)benzamide for medical application” (priority 2016, dated 2022).
Converted amounts (≈) assume the structure as drawn.

Assays:
pKa of the base = format: physicochemical
[1] = system: Sca1+ marrow cells, expressing p185-T315I^BCR/ABL; experiment: BCR/ABL-induced chronic myelogenous leukemia model; format: in vivo, C57BL/6N line mice; conditions: oral, 50 mg/kg free base; control 55.0 ± 6.3
Protocol: To assess the efficacy of the free base and methanesulfonic acid salt of 3-(1,2,4-triazolo[4,3-a]pyridine-3-ylethynyl)-4-methyl-N-(4-((4-methylpiperazine-1-yl)methyl)-3-trifluoromethylphenyl)benzamide for treating chronic myelogenous leukemia (CML) studies of the compounds' activity on the BCR/ABL-induced CML-like disease in mice were conducted. In the study C57BL/6N line mice were used. […] The efficacy of therapy with 3-(1,2,4-triazolo[4,3-a]pyridine-3-ylethynyl)-4-methyl-N-(4-((4-methylpiperazine-1-yl)methyl)-3-trifluoromethylphenyl)benzamide administered orally as a free base and methanesulfonic acid salt was studied.

physchem [2] = format: physicochemical; conditions: deionized water, water; read-out: Apparent solubility
physchem [3] = conditions: deionized water, thermodynamic from solid, Equilibrium solubility, HPLC analysis
[4] = Dissolution kinetics (USP Apparatus 1 Basket Method); format: physicochemical
Protocol: During further studies of the polymorphous modifications of the methanesulfonic acid salt of 3-(1,2,4-triazolo[4,3-a]pyridine-3-ylethynyl)-4-methyl-N-(4-((4-methylpiperazine-1-yl)methyl)-3-trifluoromethylphenyl)benzamide, the kinetics of dissolution of the free base and the two methanesulfonic acid salt form polymorphous modifications was studied. Dissolution kinetics studies were performed using USP Apparatus 1 Basket Method (USP40, General Chapter <711>. Dissolution), dissolution media volume—700 mL, temperature—37±1° C. paddle stirrers' rotation rate—100 rpm. The test sample dissolution rate was calculated as an average of six repeats. Distilled water was used as the dissolution medium for the polymorphous modifications of 3-(1,2,4-triazolo[4,3-a]pyridine-3-ylethynyl)-4-methyl-N-(4-((4-methylpiperazine-1-yl)methyl)-3-trifluoromethylphenyl)benzamide methanesulfonic acid salt and, and a solution of 12.2 mL of methanesulfonic acid in 500 mL of water was used as the dissolution medium for the free base. Test portions containing 100 mg of 3-(1,2,4-triazolo[4,3-a]pyridine-3-ylethynyl)-4-methyl-N-(4-((4-methylpiperazine-1-yl)methyl)-3-trifluoromethylphenyl)benzamide or 118 mg of 3-(1,2,4-triazolo[4,3-a]pyridine-3-ylethynyl)-4-methyl-N-(4-((4-methylpiperazine-1-yl)methyl)-3-trifluoromethylphenyl)benzamide methanesulfonic acid salt (100 mg calculated as free base) were used for dissolution. In 780 minutes (13 hours) after the beginning of the test, pH of prepared solutions was measured.

[5] = Hygroscopicity by gravimetric moisture absorption; format: physicochemical; conditions: relative air humidity of 90%
Source text: Samples were also studied using the following methods: polarization microscopy (Leica DMRB Polarized Microscope, resolution of 1600×1200)—to confirm crystallinity, ion chromatography—to confirm anion and cation stoichiometric proportion, differential scanning calorimetry (DSC) and thermogravimetric analysis (TGA)—to confirm composition and study of temperature stability of samples; ^1H NMR (500 MHz Bruker AVANCE 500.13 MHz, solvent DMSO-d6)—to confirm structure, assess purity and content of organic solvents; gravimetric moisture absorption—to assess hygroscopicity. DSC was carried out using Mettler 822e DSC apparatus. The measuring system was calibrated according to ISO 11357-1 standard based on standard substances phase changes (C6H12; Hg; benzoic acid; Ga; KNO3; In; Sn; Bi; CsCl; purity grade 99.99%). Temperature calibration regular error (determined based on In) is 0.1°. Samples were tested in standard aluminum cells in the artificial air flow at a temperature range of 30-300° C. with heating speed of 10°/min. TG measurements were taken using Mettler 851e SDTA/TGA TG analyzer. The apparatus was calibrated using standard substances melting points (Ag; Al; Bi; In; Sn; purity grade of 99.99%). Weighing error is NMT 0.1% (determined using CaC2O4·2H2O standard). The test was carried out in a standard open aluminum container in the artificial air flow at a temperature range of 30-150° C. with heating speed of 10°/min. To avoid dehydration, the material was not exposed to mechanical treatment before taking measurements.

[6] = Acute toxicity, oral route, mice; conditions: male, CD-1, mouse, in vivo, po, LD50, oral, male CD-1 mice; dose of the substance administered
Source text: (§1) For each drug dose study a group of six animals was used. The study included control groups with the same animal headcount, which received equivalent solvent doses of a 0.5% water solution of methylcellulose. The follow-up period was 28 days. Lab mouse survivability analysis allowed carrying out Bliss analysis and determining the lethal doses of the studied drugs.

CD-1 line mice males = experiment: Acute toxicity, oral route, mice
Source text: as §1

in vivo = experiment: in vivo; design: species or system C57BL/6 line mice; conditions: free base 50 mg/kg, single oral, C57BL/6 mice, plasma
Protocol: FIGS. 52A-52B. […] The mean values were determined for each time point on the basis of the individual data obtained from three animals.
The results of the study are given in FIG. 52 and in Tables 14 and 15.

[7] = Stability, 7 days at T = 60° C.; format: physicochemical
[8] = Stability of polymorph modifications, suspending in acetone for 6 days; format: physicochemical
Protocol: Crystallinity of all samples obtained was studied using the method of X-ray powder diffraction (to study the crystallinity structure). Diffraction patterns were obtained at a temperature of 25° C. […] Survey step 0.02° 2θ, angle range 3-45° 2θ. Diffraction patterns obtained were studied in detail using X'Pert HighScore Plus software package.

[9] = Solubility of the free base in various solvents; format: physicochemical; conditions: thermodynamic from solid
Protocol: At the first stage the initial base was tested for solubility in selected organic solvents. The maximum selected solvent volume used in this test was 1.25 mL per 1 mg of base. Low toxicity (Class 3), low-boiling (Tboiling<100° C.), polar, solvents. in which the base was soluble at no less than 10 mg/mL were selected for further studies.

[10] = oral, male CD-1 mice, dose of the substance administered

Q: For `Cc1ccc(C(=O)Nc2ccc(CN3CCN(C)CC3)c(C(F)(F)F)c2)cc1C#Cc1nnc2ccccn12` [free base, 3-(1,2,4-triazolo[4,3-a]pyridine-3-ylethynyl)-4-methyl-N-(4-((4-methylpiperazin-1-yl)methyl)-3-trifluoromethylphenyl)benzamide], which pKa (pKa of the base) is on record?
A: Its pKa is ~6.4.

Q: And the Average life [1]?
A: Its Average life is 93.0 ± 6.1 days.

Q: And the solubility (physchem [2])?
A: The solubility was < 1000 µg/mL.

Q: And the pH (equilibrium solubility test in water)?
A: Its pH is 5.3.

Q: What about the “Crystallinity in 24 h” value (solid in water, equilibrium solubility test) of the same compound?
A: Its value is “Cryst”.

Q: And the solubility thermodynamic (physchem [3])?
A: The solubility thermodynamic was 0.23 µg/mL (≈ 0.432 µM).

Q: What about the “pH of prepared solution” value ([4]; 780 minutes after beginning, medium 12.2 mL methanesulfonic acid in 500 mL water) of the same compound?
A: The value was 4.02.

Q: And the share dissolved ([4]; solution containing 12.2 mL methanesulfonic acid, 780 minutes (13 hours))?
A: Its share dissolved is “less than 90%”.

Q: And the “water absorbed (hygroscopicity)” value [5]?
A: Its value is “less than three mass percent of water”.

Q: What about the LD50 at 28 days [6] of the same compound?
A: The LD50 at 28 days was 677 ± 55 mg/kg.

Q: What about the “Dose without observable effects” value (CD-1 line mice males; male, CD-1, mouse, in vivo, po, 28 days) of the same compound?
A: The value was 160 mg/kg.

Q: What about the “signs of animal intoxication” value (CD-1 line mice males; mouse, in vivo, po) of the same compound?
A: Its value is “dyspnea, hypodynamia, tumbled fur, diarrhea, bloating, in some animals—focal alopecia”.

Q: What about the LD10 (CD-1 line mice males; [10]) of the same compound?
A: The LD10 was 504 mg/kg.

Q: What about the LD90 (CD-1 line mice males; [10]) of the same compound?
A: Its LD90 is 850 mg/kg.

Q: And the AUC0-24/24 (in vivo)?
A: The AUC0-24/24 was 452 ng/mL.

Q: What about the AUC(0-inf) (in vivo; mouse) of the same compound?
A: The AUC(0-inf) was 10900 ng·h/mL.

Q: And the half-life (in vivo; mouse)?
A: The half-life was 2.4 h.

Q: And the AUC(0-t) (in vivo; mouse, read-out: AUC0-24)?
A: The AUC(0-t) was 10900 ng·h/mL.

Q: What about the Cmax (in vivo; mouse, read-out: Cmax) of the same compound?
A: The Cmax was 1490 ng/mL.

Q: And the Tmax (in vivo; mouse, read-out: Tmax)?
A: Its Tmax is 2 h.

Q: And the “Crystallinity in 7 days” value ([7]; 7 days at T = 60° C.)?
A: The value was “Form I”.

Q: And the “Relative peak area, in 7 days” value ([7]; 7 days at T = 60° C.)?
A: Its value is 99.7%.

Q: And the “Relative peak area, initial” value ([7]; before storage)?
A: The value was 99.7%.

Q: What about the content of impurities ([7]; kept seven days at 60° C.) of the same compound?
A: Its content of impurities is “remains constant”.

Q: And the “crystalline structure after suspending in acetone” value ([8]; acetone, 6 days)?
A: Its value is “changes”.

Q: And the “Crystallinity in 6 days” value ([8]; suspending in acetone for 6 days, room temperature)?
A: Its value is “Form II”.

Q: What about the solubility ([9]; organic solvent or mixture, 2-methyltetrahydrofuran, 3.7 mg in 0.6 mL, 50 °C) of the same compound?
A: Its solubility is > 800 µg/mL.

Q: And the solubility ([9]; organic solvent or mixture, Acetone, 3.4 mg in 0.3 mL, 50 °C)?
A: The solubility was > 800 µg/mL.

Q: What about the solubility ([9]; organic solvent or mixture, Acetonitrile, 3.5 mg in 4.0 mL, 50 °C) of the same compound?
A: Its solubility is < 800 µg/mL.

Q: What about the solubility ([9]; organic solvent or mixture, Cyclohexane, 4.3 mg in 4.0 mL, 50 °C) of the same compound?
A: The solubility was < 800 µg/mL.

Q: What about the solubility ([9]; organic solvent or mixture, Dichloromethane, 3.7 mg in 0.4 mL, 50 °C) of the same compound?
A: Its solubility is > 800 µg/mL.

Q: And the solubility ([9]; organic solvent or mixture, Dimethyl sulfoxide, 3.8 mg in 0.1 mL, RT)?
A: Its solubility is > 800 µg/mL.

Q: What about the solubility ([9]; organic solvent or mixture, Dimethylformamide, 4.7 mg in 0.1 mL, RT) of the same compound?
A: The solubility was > 800 µg/mL.

Q: What about the solubility ([9]; organic solvent or mixture, Ethanol, 4.7 mg in 0.3 mL, 50 °C) of the same compound?
A: The solubility was > 800 µg/mL.

Q: And the solubility ([9]; organic solvent or mixture, Ethyl acetate, 3.9 mg in 1.3 mL, 50 °C)?
A: The solubility was > 800 µg/mL.

Q: And the solubility ([9]; organic solvent or mixture, Heptane, 3.3 mg in 4.0 mL, 50 °C)?
A: The solubility was < 800 µg/mL.

Q: And the solubility ([9]; organic solvent or mixture, Isopropanol, 3.6 mg in 0.4 mL, 50 °C)?
A: Its solubility is > 800 µg/mL.

Q: What about the solubility ([9]; organic solvent or mixture, Isopropyl acetate, 4.0 mg in 4.0 mL, 50 °C) of the same compound?
A: The solubility was < 800 µg/mL.

Q: And the solubility ([9]; organic solvent or mixture, Methanol, 4.0 mg in 0.1 mL, 50 °C)?
A: The solubility was > 800 µg/mL.

Q: What about the solubility ([9]; organic solvent or mixture, Methyl ethyl ketone, 4.8 mg in 0.4 mL, 50 °C) of the same compound?
A: The solubility was > 800 µg/mL.

Q: And the solubility ([9]; organic solvent or mixture, Methyl isobutyl ketone, 4.1 mg in 0.6 mL, 50 °C)?
A: The solubility was > 800 µg/mL.

Q: What about the solubility ([9]; organic solvent or mixture, Methyl tert-butyl ether, 4.7 mg in 4.0 mL, 50 °C) of the same compound?
A: The solubility was < 800 µg/mL.

Q: What about the solubility ([9]; organic solvent or mixture, N-methylpyrrolidone, 3.7 mg in 0.1 mL, RT) of the same compound?
A: The solubility was > 800 µg/mL.

Q: What about the solubility ([9]; organic solvent or mixture, Tetrahydrofuran, 3.6 mg in 0.1 mL, 50 °C) of the same compound?
A: The solubility was > 800 µg/mL.

Q: And the solubility ([9]; organic solvent or mixture, Toluene, 3.4 mg in 4.0 mL, 50 °C)?
A: The solubility was < 800 µg/mL.

Q: What about the solubility ([9]; organic solvent or mixture, n-Butanol, 3.6 mg in 0.2 mL, 50 °C) of the same compound?
A: Its solubility is > 800 µg/mL.

Q: What about the solubility ([9]; Water, 4.6 mg in 4.0 mL, 50 °C) of the same compound?
A: Its solubility is < 800 µg/mL.
